Laboratory results published in the SangsterLogP compilation.

logP	Compound
3.8	O=C1COCC(=O)N(Cc2ccccc2)CCOCCN(Cc2ccccc2)C(=O)COCC(=O)N(Cc2ccccc2)CCOCCN1Cc1ccccc1
3.8	O=C1COCC(=O)N(Cc2ccccc2)CCN(Cc2ccccc2)C(=O)COCC(=O)N(Cc2ccccc2)CCN1Cc1ccccc1
3.8	O=C1COCC(=O)N(Cc2ccccc2)CCN(Cc2ccccc2)C(=O)COCC(=O)N(Cc2ccccc2)CCOCCN1Cc1ccccc1
3.8	O=C1COCCOCC(=O)N(Cc2ccccc2)CCN(Cc2ccccc2)C(=O)COCCOCC(=O)N(Cc2ccccc2)CCN1Cc1ccccc1

Continued, compound first:

Compound	logP
O=C1COCC(=O)N(Cc2ccccc2)CCN(c2ccc(F)cc2)CCN(Cc2ccccc2)C(=O)COCC(=O)N(Cc2ccccc2)CCN1Cc1ccccc1	5.2
O=C1CCCCCCC(=O)N(Cc2ccccc2)CCN(Cc2ccccc2)C(=O)CCCCCCC(=O)N(Cc2ccccc2)CCN1Cc1ccccc1	5.1
O=C1COCC(=O)N(Cc2ccccc2)CCN(c2ccccc2)CCN(Cc2ccccc2)C(=O)COCC(=O)NCCN1	2.2
CCOC(=O)CCCCCCCCCCCN(C)C(=O)CO[C@@H](C)[C@H](C)OCC(=O)N(C)CCCCCCCCCCCC(=O)OCC	6.2
O=C(COCC(=O)N(C1CCCCC1)C1CCCCC1)N(C1CCCCC1)C1CCCCC1	6.7
O=C1COCC(=O)N(Cc2ccccc2)CCN(c2ccccc2)CCN(Cc2ccccc2)C(=O)COCC(=O)N(Cc2ccccc2)CCN1Cc1ccccc1	5.2
O=C1COCC(=O)N(Cc2ccccc2)CCN(Cc2ccccc2)C(=O)COCC(=O)NCCN1	1.9
CCN(Cc1ccccc1)C(=O)COCC(=O)N(CC)Cc1ccccc1	2.5
